Reference: patent US11667649B2, “Heteroaromatic macrocyclic ether chemotherapeutic agents” (Nuvalent, Inc., priority 2020, dated 2023)

How the values were obtained:
ALK-wt kinase domain = biological target: T1, ALK-wt kinase domain (Homo sapiens, UniProt Q9UM73); assay: Biochemical kinase assay, ALK-wt; conditions: 2 mM ATP substrate solution, read-out: Ki^app ALK-wt
T1 construct: TRKA-wt (1 nM, BPS Bio, 40280) kinase domains in buffer; purchased Carna 08-518
Protocol: (§1) First, 250 nL of compound dissolved in DMSO (100-fold of the desired concentration) was dispensed into a 384-well plate. A 12.5 μL substrate solution containing ATP (2 mM) and fluorogenic phosphorylation substrate AQT0101 (26 μM for ALK and ROS1, AssayQuant) or AQT0104 (26 μM for TRKA, AssayQuant) in buffer (50 mM HEPES pH 7.5, 0.01% Brij-35, 0.5 mM EGTA, 10 mM MgCl2) was added and mixed thoroughly. Then, a 12.5 μL kinase solution containing ALK-wt (1.5 nM, Carna, 08-518), ALK ALK L1196M/G1202R (3 nM, SignalChem, A19-12NG), ROS1-wt (0.6 nM, Carna, 08-163), ROS1-G2032R (0.5 nM, SignalChem, R14-12BG), or TRKA-wt (1 nM, BPS Bio, 40280) kinase domains in buffer ([…] HEPES pH 7.5, 0.01% Brij-35, 2% glycerol, 0.4 mg/mL BSA, 0.5 mM EGTA, and 10 mM MgCl2) was added and mixed thoroughly. The plate was sealed and read by SpectraMax Paradigm at λ=485 nm every 2 minutes for 120 minutes at 30° C. Initial rates of reaction (v) were calculated from the change in fluorescence intensity over time during the initial, linear portion of the reaction. Finally, apparent inhibitory constants (Ki^app) were determined from regression of v and I (inhibitor concentration) to Morrison Equation (E=enzyme concentration): […]

[1] = biological target: T2, ALK L1196M/G1202R kinase domain (Homo sapiens, UniProt Q9UM73, G1202R/L1196M); assay: Biochemical kinase assay, ALK L1196M/G1202R; conditions: 2 mM ATP substrate solution, read-out: Ki^app ALK-L1196M-G1202R
T2 construct: TRKA-wt (1 nM, BPS Bio, 40280) kinase domains in buffer; purchased SignalChem A19-12NG
Protocol: as §1

ROS1-wt kinase domain = biological target: T3, ROS1-wt kinase domain (Homo sapiens, UniProt P08922); assay: Biochemical kinase assay, ROS1-wt; conditions: 2 mM ATP substrate solution, read-out: Ki^app ROS1-wt
T3 construct: TRKA-wt (1 nM, BPS Bio, 40280) kinase domains in buffer; purchased Carna 08-163
Protocol: as §1

[2] = biological target: T4, ROS1-G2032R kinase domain (Homo sapiens, UniProt P08922, G2032R); assay: Biochemical kinase assay, ROS1-G2032R; conditions: 2 mM ATP substrate solution, read-out: Ki^app ROS1-G2032R
T4 construct: TRKA-wt (1 nM, BPS Bio, 40280) kinase domains in buffer; purchased SignalChem R14-12BG
Protocol: as §1

TRKA-wt kinase domain = biological target: T5, TRKA-wt kinase domain (Homo sapiens, UniProt P04629); assay: Biochemical kinase assay, TRKA-wt; conditions: 2 mM ATP substrate solution, read-out: Ki^app TRKA-wt
T5 construct: TRKA-wt (1 nM, BPS Bio, 40280) kinase domains in buffer; purchased BPS Bio 40280
Protocol: as §1

| Compound | Ki (ALK-wt kinase domain) [nM] | Ki [1] [nM] | Ki (ROS1-wt kinase domain) [nM] | Ki [2] [nM] | Ki (TRKA-wt kinase domain) [nM] |
| --- | --- | --- | --- | --- | --- |
| CCn1nc2c(c1C#N)-c1cnc(N)c(c1)O[C@H](C)c1cc(F)ccc1-n1nccc1C2 [Compound 119] | < 50 | < 50 | < 50 | 50 to 500 | < 50 |
| CCn1nnc2c1-c1cnc(N)c(c1)O[C@H](C)c1cc(F)ccc1-c1nn(C)cc1C2 [Compound 20] | < 50 | < 50 | < 50 | < 50 | 50 to 500 |
| CC1Oc2cc(cnc2N)-c2c(cnn2C(F)F)Cn2ccnc2-c2ccc(F)cc21 (stereo not shown) [Compound 44] | < 50 | 50 to 500 | < 50 | < 50 | 50 to 500 |
| Cc1nc2c(s1)Cn1ncc(C#N)c1-c1cnc(N)c(c1)O[C@H](C)c1cc(F)ccc1-2 [Compound 67] | < 50 | < 50 | < 50 | < 50 | 50 to 500 |
| C[C@H]1Oc2cc(cnc2N)-c2c(nn(C)c2C2CCC2)Cc2ccnn2-c2ccc(F)cc21 [Compound 174] | < 50 | < 50 | < 50 | < 50 | 50 to 500 |
| CCn1nc(Cl)c2c1-c1cnc(N)c(c1)O[C@H](C)c1cc(F)ccc1-c1nn(C)cc1C2 [Compound 73] | < 50 | < 50 | < 50 | < 50 | 50 to 500 |
| CC1Oc2cc(cnc2N)-c2c(cnn2CC(F)F)Cn2ccnc2-c2ccc(F)cc21 (stereo not shown) [Compound 40] | < 50 | 50 to 500 | < 50 | < 50 | > 500 |
| C[C@H]1Oc2cc(cnc2N)-c2c(C#N)nn(C)c2Cc2cc(C(F)(F)F)nn2-c2ccc(F)cc21 [Compound 104] | < 50 | < 50 | < 50 | < 50 | > 500 |
| C[C@H]1Oc2cc(cnc2N)-c2c(cnn2CC2CC2)Cc2cn(C)nc2-c2ccc(F)cc21 [Compound 121] | < 50 | < 50 | < 50 | < 50 | 50 to 500 |
| CCc1noc2c1-c1cnc(N)c(c1)OCc1cc(F)ccc1-c1nn(C)cc1C2 [Compound 30] | < 50 | < 50 | < 50 | 50 to 500 | > 500 |
| C[C@H]1Oc2cc(cnc2N)-c2c(cnn2CC2CC2)Cc2cccnc2-c2ccc(F)cc21 [Compound 137] | < 50 | < 50 | < 50 | < 50 | 50 to 500 |
| CC(C)n1nc2c(c1C#N)-c1cnc(N)c(c1)O[C@H](C)c1cc(F)ccc1-n1nccc1C2 [Compound 118] | < 50 | 50 to 500 | < 50 | > 500 | < 50 |
| CCn1nc(Br)c2c1-c1cnc(N)c(c1)O[C@H](C)c1cc(F)ccc1-c1nn(C)cc1C2 [Compound 148] | < 50 | < 50 | < 50 | 50 to 500 | > 500 |
| CCc1nn(CC)c2c1Cc1cn(C)nc1-c1ccc(F)cc1[C@@H](C)Oc1cc-2cnc1N [Compound 158] | < 50 | < 50 | < 50 | < 50 | < 50 |
| CCn1ncc2c1-c1cnc(N)c(c1)OCc1cc(F)ccc1-n1nc(Cl)cc1C2 [Compound 75] | < 50 | < 50 | < 50 | < 50 | 50 to 500 |
| CCn1nc(C#N)c2c1-c1cnc(N)c(c1)O[C@H](C)c1cc(F)ccc1-c1nn(C)cc1C2 [Compound 156] | < 50 | < 50 | < 50 | < 50 | 50 to 500 |

| Compound | Ki (ALK-wt kinase domain) [nM] | Ki [1] [nM] | Ki (ROS1-wt kinase domain) [nM] | Ki [2] [nM] | Ki (TRKA-wt kinase domain) [nM] |
| --- | --- | --- | --- | --- | --- |
| C[C@H]1Oc2cc(cnc2N)-c2c(C#N)cnn2Cc2cccnc2-c2ccc(F)cc21 [Compound 14] | < 50 | < 50 | < 50 | < 50 | 50 to 500 |
| C[C@H]1Oc2cc(cnc2N)-c2c(C#N)ncn2Cc2ccncc2-c2ccc(F)cc21 [Compound 11] | < 50 | 50 to 500 | < 50 | < 50 | > 500 |
| CCc1snc2c1-c1cnc(N)c(c1)O[C@H](C)c1cc(F)ccc1-c1nn(C)cc1C2 [Compound 88] | < 50 | < 50 | < 50 | < 50 | 50 to 500 |
| C[C@H]1Oc2cc(cnc2N)-c2c(nn(C)c2C#N)Cc2cn(C)nc2-c2ccc(F)cc21 [Compound 111] | < 50 | < 50 | < 50 | < 50 | 50 to 500 |
| C[C@H]1Oc2cc(cnc2N)-c2c(cnn2CC(F)(F)F)Cc2cn(C)nc2-c2ccc(F)cc21 [Compound 27] | < 50 | < 50 | < 50 | < 50 | > 500 |
| CCn1ncc2c1-c1cnc(N)c(c1)O[C@H](C)c1cc(F)ccc1-c1nn(C(C)(C)C)cc1C2 [Compound 150] | < 50 | < 50 | < 50 | < 50 | 50 to 500 |
| CCn1ncc2c1-c1cnc(N)c(c1)OCc1cc(F)ccc1-c1nccn1C2 [Compound 34] | < 50 | < 50 | < 50 | 50 to 500 | > 500 |
| C[C@H]1Oc2cc(cnc2N)-c2c(C#N)nn(C)c2Cc2cccnc2-c2ccc(F)cc21 [Compound 100] | < 50 | < 50 | < 50 | < 50 | 50 to 500 |
| CCn1nc(OC)c2c1-c1cnc(N)c(c1)O[C@H](C)c1cc(F)ccc1-c1nn(C)cc1C2 [Compound 181] | < 50 | < 50 | < 50 | < 50 | 50 to 500 |
| C[C@H]1Oc2cc(cnc2N)-c2c(C#N)nn(C)c2Cc2csnc2-c2ccc(F)cc21 [Compound 143] | < 50 | < 50 | < 50 | < 50 | 50 to 500 |
| CC(C)Cn1ncc2c1-c1cnc(N)c(c1)O[C@H](C)c1cc(F)ccc1-c1nn(C)cc1C2 [Compound 154] | < 50 | < 50 | < 50 | < 50 | > 500 |
| C[C@H]1Oc2cc(cnc2N)-c2c(nnn2CC2CC2)Cc2cc(Cl)nn2-c2ccc(F)cc21 [Compound 108] | < 50 | < 50 | < 50 | < 50 | 50 to 500 |
| Cc1cc2n(n1)-c1ccc(F)cc1[C@@H](C)Oc1cc(cnc1N)-c1c(C#N)ncn1C2 [Compound 61] | 50 to 500 | > 500 | 50 to 500 | > 500 | > 500 |
| C[C@H]1Oc2cc(cnc2N)-c2c(nn(C)c2C#N)Cc2ccnn2-c2ccc(F)cc21 [Compound 169] | < 50 | < 50 | < 50 | < 50 | < 50 |
| C[C@H]1Oc2cc(cnc2N)-c2c(cnn2CC2CC2)Cc2cc(C(F)F)nn2-c2ccc(F)cc21 [Compound 130] | < 50 | < 50 | < 50 | < 50 | 50 to 500 |
| CCn1nnc2c1-c1cnc(N)c(c1)O[C@H](C)c1cc(F)ccc1-n1nc(C(F)(F)F)cc1C2 [Compound 107] | < 50 | < 50 | < 50 | < 50 | 50 to 500 |
